Our source for the IC50 values is patent US10787444B2, “Compounds for the modulation of myc activity” (Syros Pharmaceuticals, Inc., priority 2015, dated 2020).

One experiment addresses T1, c-Myc/Max/Ebox DNA (Homo sapiens, UniProt P01106).
T1 construct: his6 (cleaved yes)
Nature of the experiment: c-Myc/Max/Ebox DNA AlphaScreen Assay. Format: binding. Particulars: calculated IC50 class. An outline of the steps:
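Compounds were preincubated with free c-Myc (20 nM), biotinylated single-Ebox DNA (10 nM) and Ni acceptor beads before his6-Max (5 nM) and streptavidin donor beads were added. Buffer was 50 mM HEPES pH 8.0, 150 mM NaCl, BSA, Tween20, glycogen and DTT, with DMSO ≤2%. After 2 h incubation, AlphaScreen signal was read at 680 nm excitation and 520–620 nm emission.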

Experiment [1] has as its system human small lung cancer cell line H2171. Nature of the experiment: Cell Viability Assay (ATPlite). Particulars: read-out: H2171 Activity. Format: cell-based. An outline of the steps: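 Viability readout was ATPlite luminescence, taken after 3 days' incubation at 37° C. Human SCLC H2171 cells (20,000 cells/mL) received compound right after plating, as a 10-point dose response.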
In general terms: In ATP-based viability assays light output follows the ATP content of the culture.

Where [2] appears, read: Homo sapiens, NCI-H2171, 72 h, Table 3, compounds of FIG. 2, H2171 cells, three days, ATPlite, calculated IC50 class.
Setting [3] is: Homo sapiens, NCI-H2171, 72 h, Table 2, compounds of FIG. 1, H2171 cells, three days, ATPlite, calculated IC50 class.
Setting [4] is: Table 2, compounds of FIG. 1, H2171 cells, three days, ATPlite, calculated IC50 class.

Where two headings read alike, the source gives them in different places.

T1 sequence (P01106 whole entry): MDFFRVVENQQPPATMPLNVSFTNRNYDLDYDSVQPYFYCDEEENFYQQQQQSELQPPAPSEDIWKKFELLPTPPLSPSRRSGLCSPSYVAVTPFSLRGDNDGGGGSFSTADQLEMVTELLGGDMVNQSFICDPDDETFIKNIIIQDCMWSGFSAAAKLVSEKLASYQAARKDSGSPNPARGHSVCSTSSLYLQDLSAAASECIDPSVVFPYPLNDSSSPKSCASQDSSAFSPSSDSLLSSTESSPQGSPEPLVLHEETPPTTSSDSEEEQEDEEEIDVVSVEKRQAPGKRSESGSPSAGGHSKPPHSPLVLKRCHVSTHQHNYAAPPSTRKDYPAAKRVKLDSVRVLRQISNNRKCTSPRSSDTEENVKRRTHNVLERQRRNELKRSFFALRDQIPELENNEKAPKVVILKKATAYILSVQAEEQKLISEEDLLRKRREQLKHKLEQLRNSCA

With `COC(=O)c1ccc2sc(-c3c(NC(C)=O)sc4c3CCNC4)nc2c1` [Compound 229, Methyl 2-(2-acetamido-4,5,6,7-tetrahydrothieno[2,3-c]pyridin-3-yl)benzo[d]thiazole-5-carboxylate], the IC50 on c-Myc/Max/Ebox DNA (Table 3, compounds of FIG. 2) is 300 to 1000 nM; in experiment [1] (setting [2]), under 300 nM.

With `CC(=O)Nc1sc2c(c1-c1nc3cc(N(C)C)ccc3s1)CCNC2` [Compound 230, N-(3-(5-(dimethylamino)benzo[d]thiazol-2-yl)-4,5,6,7-tetrahydrothieno[2,3-c]pyridin-2-yl)acetamide], the IC50 at c-Myc/Max/Ebox DNA (Table 3, compounds of FIG. 2) was 1000 to 10000 nM; in experiment [1] (setting [2]) it was over 10000 nM.

As to `CC(=O)Nc1sc2c(c1-c1nc3ccccc3s1)CCC(NC1CCOCC1)C2` (stereo not shown) [Compound 231, N-(3-(benzo[d]thiazol-2-yl)-6-((tetrahydro-2H-pyran-4-yl)amino)-4,5,6,7-tetrahydrobenzo[b]thiophen-2-yl)acetamide], the IC50 is 1000 to 10000 nM at c-Myc/Max/Ebox DNA (Table 3, compounds of FIG. 2) and under 300 nM in experiment [1] (setting [2]).

Turning to `CC(=O)N(C)c1sc2c(c1-c1nc3ccccc3s1)CCNC2` [Compound 232, N-(3-(benzo[d]thiazol-2-yl)-4,5,6,7-tetrahydrothieno[2,3-c]pyridin-2-yl)-N-methylacetamide], the IC50 on c-Myc/Max/Ebox DNA (Table 3, compounds of FIG. 2) was over 10000 nM; in experiment [1] (setting [2]), over 10000 nM.

For the molecule `CC(=O)Nc1sc2c(c1-c1nc3cc4c(cc3s1)OCO4)CCN(C(C)C)C2` [Compound 236, N-(3-([1,3]Dioxolo[4′,5′:4,5]benzo[1,2-d]thiazol-6-yl)-6-isopropyl-4,5,6,7-tetrahydrothieno[2,3-c]pyridin-2-yl)acetamide], the IC50 at c-Myc/Max/Ebox DNA (Table 3, compounds of FIG. 2) is 300 to 1000 nM; in experiment [1] (setting [2]), 300 to 1000 nM.

For `CC(=O)Nc1sc2c(c1-c1nc3cc4c(cc3s1)OCO4)CCNC2` [Compound 237, N-(3-([1,3]Dioxolo[4′,5′:4,5]benzo[1,2-d]thiazol-6-yl)-4,5,6,7-tetrahydrothieno[2,3-c]pyridin-2-yl)acetamide], the IC50 was 1000 to 10000 nM at c-Myc/Max/Ebox DNA (Table 3, compounds of FIG. 2) and 300 to 1000 nM in experiment [1] (setting [2]).

As to `CCC(C)NCCC(=O)N(C)c1sc2c(c1-c1nc3ccccc3s1)CCNC2` (stereo not shown) [Compound 301, N-(3-(benzo[d]thiazol-2-yl)-4,5,6,7-tetrahydrothieno[2,3-c]pyridin-2-yl)-3-(sec-butylamino)-N-methylpropanamide], the IC50 is 1000 to 10000 nM on c-Myc/Max/Ebox DNA (Table 2, compounds of FIG. 1) and 1000 to 10000 nM in experiment [1] (setting [3]).

As for `COCCN(CCOC)CCC(=O)Nc1sc2c(c1-c1nc3ccccc3s1)CCNC2` [Compound 309, N-(3-(benzo[d]thiazol-2-yl)-4,5,6,7-tetrahydrothieno[2,3-c]pyridin-2-yl)-3-(bis(2-methoxyethyl)amino)propanamide], the IC50 at c-Myc/Max/Ebox DNA (Table 2, compounds of FIG. 1) is over 10000 nM; in experiment [1] (setting [3]) it was under 300 nM.

For `O=C(CCNCCO)Nc1sc2c(c1-c1nc3ccccc3s1)CCNC2` [Compound 310, N-(3-(Benzo[d]thiazol-2-yl)-4,5,6,7-tetrahydrothieno[2,3-c]pyridin-2-yl)-3-((2-hydroxyethyl)amino)propanamide], the IC50 on c-Myc/Max/Ebox DNA (Table 2, compounds of FIG. 1) was under 300 nM; in experiment [1] (setting [3]), under 300 nM.

Turning to `COCCNCCC(=O)Nc1sc2c(c1-c1nc3cc(C)ccc3s1)CCNC2` [Compound 314, 3-((2-Methoxyethyl)amino)-N-(3-(5-methylbenzo[d]thiazol-2-yl)-4,5,6,7-tetrahydrothieno[2,3-c]pyridin-2-yl)propanamide], the IC50 was under 300 nM on c-Myc/Max/Ebox DNA (Table 2, compounds of FIG. 1) and under 300 nM in experiment [1] (setting [3]).

As to `COCCNCCC(=O)Nc1sc2c(c1-c1nc3ccccc3s1)CC(C)NC2C` (stereo not shown) [Compound 315, N-(3-(Benzo[d]thiazol-2-yl)-5,7-dimethyl-4,5,6,7-tetrahydrothieno[2,3-c]pyridin-2-yl)-3-((2-methoxyethyl)amino)propanamide], the IC50 at c-Myc/Max/Ebox DNA (Table 2, compounds of FIG. 1) is 300 to 1000 nM; in experiment [1] (setting [4]), under 300 nM.

As for `COCCNCCC(=O)Nc1sc2c(c1-c1nc3ccc(F)cc3s1)CCNC2` [Compound 318, N-(3-(6-Fluorobenzo[d]thiazol-2-yl)-4,5,6,7-tetrahydrothieno[2,3-c]pyridin-2-yl)-3-((2-methoxyethyl)amino)propanamide], the IC50 at c-Myc/Max/Ebox DNA (Table 2, compounds of FIG. 1) is 300 to 1000 nM; in experiment [1] (setting [3]), under 300 nM.

As to `CCC(C)N(CCC(=O)Nc1sc2c(c1-c1nc3ccccc3s1)CCN(CCNC(=O)C(F)(F)F)C2)C(C)=O` (stereo not shown) [Compound 319, N-(3-(Benzo[d]thiazol-2-yl)-6-(2-(2,2,2-trifluoroacetamido)ethyl)-4,5,6,7-tetrahydrothieno[2,3-c]pyridin-2-yl)-3-(N-(sec-butyl)acetamido)propanamide], the IC50 is over 10000 nM at c-Myc/Max/Ebox DNA (Table 2, compounds of FIG. 1) and 300 to 1000 nM in experiment [1] (setting [3]).

For `CC(C)NCCC(=O)Nc1sc2c(c1-c1nc3cc(C(=O)O)ccc3s1)CCNC2` [Compound 320, 2-(2-(3-(Isopropylamino)propanamido)-4,5,6,7-tetrahydrothieno[2,3-c]pyridin-3-yl)benzo[d]thiazole-5-carboxylic acid], the IC50 at c-Myc/Max/Ebox DNA (Table 2, compounds of FIG. 1) is 300 to 1000 nM; in experiment [1] (setting [3]), under 300 nM.

As to `C=Cc1ccc2sc(-c3c(NC(=O)CCNC(C)C)sc4c3CCNC4)nc2c1` [Compound 321, 3-(Isopropylamino)-N-(3-(5-vinylbenzo[d]thiazol-2-yl)-4,5,6,7-tetrahydrothieno[2,3-c]pyridin-2-yl)propanamide], the IC50 at c-Myc/Max/Ebox DNA (Table 2, compounds of FIG. 1) is 300 to 1000 nM; in experiment [1] (setting [3]), under 300 nM.

Take `CC(C)NCCC(=O)Nc1sc2c(c1-c1nc3cc(C(=O)N(C)C)ccc3s1)CCNC2` [Compound 322, 2-(2-(3-(Isopropylamino)propanamido)-4,5,6,7-tetrahydrothieno[2,3-c]pyridin-3-yl)-N,N-dimethylbenzo[d]thiazole-5-carboxamide]: the IC50 at c-Myc/Max/Ebox DNA (Table 2, compounds of FIG. 1) was 300 to 1000 nM; in experiment [1] (setting [3]), under 300 nM.

For `COCCNC(=O)c1ccc2sc(-c3c(NC(=O)CCNC(C)C)sc4c3CCNC4)nc2c1` [Compound 323, 2-(2-(3-(Isopropylamino)propanamido)-4,5,6,7-tetrahydrothieno[2,3-c]pyridin-3-yl)-N-(2-methoxyethyl)benzo[d]thiazole-5-carboxamide], the IC50 at c-Myc/Max/Ebox DNA (Table 2, compounds of FIG. 1) is under 300 nM; in experiment [1] (setting [3]), under 300 nM.

Turning to `CC(C)NCCC(=O)Nc1sc2c(c1-c1nc3cc(C(=O)N4CCN(C)CC4)ccc3s1)CCNC2` [Compound 324, 3-(Isopropylamino)-N-(3-(5-(4-methylpiperazine-1-carbonyl)benzo[d]thiazol-2-yl)-4,5,6,7-tetrahydrothieno[2,3-c]pyridin-2-yl)propanamide], the IC50 on c-Myc/Max/Ebox DNA (Table 2, compounds of FIG. 1) was 300 to 1000 nM; in experiment [1] (setting [3]), 1000 to 10000 nM.

As to `CC(C)NCCC(=O)Nc1sc2c(c1-c1nc3cc(C(=O)Nc4ccccc4)ccc3s1)CCNC2` [Compound 505, 2-(2-(3-(Isopropylamino)propanamido)-4,5,6,7-tetrahydrothieno[2,3-c]pyridin-3-yl)-N-phenylbenzo[d]thiazole-5-carboxamide], the IC50 on c-Myc/Max/Ebox DNA (Table 2, compounds of FIG. 1) is 1000 to 10000 nM; in experiment [1] (setting [3]) it was under 300 nM.

Regarding `COCCNCCC(=O)Nc1sc2c(c1-c1nc3ccccc3s1)CC(C)NC2C` (stereo not shown) [Compound 506, N-(3-(Benzo[d]thiazol-2-yl)-5,7-dimethyl-4,5,6,7-tetrahydrothieno[2,3-c]pyridin-2-yl)-3-((2-methoxyethyl)amino)propanamide], the IC50 is 300 to 1000 nM on c-Myc/Max/Ebox DNA (Table 2, compounds of FIG. 1) and 1000 to 10000 nM in experiment [1] (setting [4]).

`COCCNCCC(=O)Nc1sc2c(c1-c1nc3ccccc3s1)CC(C)NC2C` (stereo not shown) [Compound 507, N-(3-(Benzo[d]thiazol-2-yl)-5,7-dimethyl-4,5,6,7-tetrahydrothieno[2,3-c]pyridin-2-yl)-3-((2-methoxyethyl)amino)propanamide]: the IC50 is 300 to 1000 nM at c-Myc/Max/Ebox DNA (Table 2, compounds of FIG. 1) and under 300 nM in experiment [1] (setting [4]).

As for `CC(C)NCCC(=O)Nc1sc2c(c1-c1nc3cc(C(=O)Nc4cccnc4)ccc3s1)CCNC2` [Compound 510, 2-(2-(3-(Isopropylamino)propanamido)-4,5,6,7-tetrahydrothieno[2,3-c]pyridin-3-yl)-N-(pyridin-3-yl)benzo[d]thiazole-5-carboxamide], the IC50 is 300 to 1000 nM on c-Myc/Max/Ebox DNA (Table 2, compounds of FIG. 1) and under 300 nM in experiment [1] (setting [3]).

As to `COCCNCCC(=O)Nc1sc2c(c1-c1nc3cc(-c4ccncc4)ccc3s1)C[C@H](C)N[C@@H]2C` [Compound 532, N-((5S,7R)-5,7-dimethyl-3-(5-(pyridin-4-yl)benzo[d]thiazol-2-yl)-4,5,6,7-tetrahydrothieno[2,3-c]pyridin-2-yl)-3-((2-methoxyethyl)amino)propanamide], the IC50 is over 10000 nM on c-Myc/Max/Ebox DNA (Table 2, compounds of FIG. 1) and 300 to 1000 nM in experiment [1] (setting [3]).

Take `COCCNCCC(=O)Nc1sc2c(c1-c1nc3cc(-c4cccnc4)ccc3s1)CC(C)NC2C` (stereo not shown) [Compound 533, N-(5,7-Dimethyl-3-(5-(pyridin-3-yl)benzo[d]thiazol-2-yl)-4,5,6,7-tetrahydrothieno[2,3-c]pyridin-2-yl)-3-((2-methoxyethyl)amino)propanamide]: the IC50 was 1000 to 10000 nM on c-Myc/Max/Ebox DNA (Table 2, compounds of FIG. 1) and 300 to 1000 nM in experiment [1] (setting [3]).

Take `CCCNCCC(=O)Nc1sc2c(c1-c1nc3ccccc3s1)CCN(C(C)C)C2` [Compound 539, N-(3-(Benzo[d]thiazol-2-yl)-6-isopropyl-4,5,6,7-tetrahydrothieno[2,3-c]pyridin-2-yl)-3-(propylamino)propanamide]: the IC50 was 300 to 1000 nM on c-Myc/Max/Ebox DNA (Table 2, compounds of FIG. 1) and 300 to 1000 nM in experiment [1] (setting [4]).

Regarding `CCNCCC(=O)Nc1sc2c(c1-c1nc3ccccc3s1)CCN(C(C)C)C2` [Compound 540, N-(3-(Benzo[d]thiazol-2-yl)-6-isopropyl-4,5,6,7-tetrahydrothieno[2,3-c]pyridin-2-yl)-3-(ethylamino)propanamide], the IC50 is 300 to 1000 nM on c-Myc/Max/Ebox DNA (Table 2, compounds of FIG. 1) and under 300 nM in experiment [1] (Homo sapiens, NCI-H2171, 72 h).
